According to US20230382925A1, “MODULATORS OF CYSTIC FIBROSIS TRANSMEMBRANE CONDUCTANCE REGULATOR” (VERTEX PHARMACEUTICALS INCORPORATED, priority 2020, published 2023):
Read-outs that look alike come from different tables or passages of the source.

Legend:
CFTR [1] = molecular target: T1, CFTR (Homo sapiens, UniProt P13569); assay: Membrane Potential Dye, Enteroid Assay A; format: cell-based; details: for EC50: read-out: Ent. A EC50
Procedure: Base medium (ADF+++) consisted of Advanced […], 2 mM Glutamax, 10 mM HEPES, 1 μg/mL penicillin/streptomycin.
Intestinal enteroid maintenance medium (IEMMN) consisted of ADF+++, 1× B27 supplement, 1× N2 supplement, 1.25 mM N-acetyl cysteine, 10 mM Nicotinamide, 50 ng/mL hEGF, 10 nM Gastrin, 1 μg/mL hR-spondin-1, 100 ng/mL hNoggin, TGF-b type 1 inhibitor A-83-01, 100 μg/mL Primocin, 10 μM P38 MAPK inhibitor SB202190.
Bath 1 Buffer consisted of 1 mM MgCl2, 160 mM NaCl, 4.5 mM KCl, 10 mM HEPES, 10 mM Glucose, 2 mM CaCl2).
Chloride Free Buffer consisted of 1 mM Magnesium Gluconate, 2 mM Calcium Gluconate, 4.5 mM Potassium Gluconate, 160 mM Sodium Gluconate, 10 mM HEPES, 10 mM Glucose.
Bath 1 Dye Solution consisted of Bath 1 Buffer, 0.04% Pluronic F127, 20 μM Methyl Oxonol, 30 μM CaCCinh-A01, 30 μM Chicago Sky Blue.
Chloride Free Dye Solution consisted of Chloride Free Buffer, 0.04% Pluronic F127, 20 μM Methyl Oxonol, 30 μM CaCCinh-A01, 30 μM Chicago Sky Blue.
Chloride Free Dye Stimulation Solution consisted of Chloride Free Dye Solution, 10 μM forskolin, 100 μM IBMX, and 300 nM Compound III.
Human intestinal epithelial enteroid cells were obtained from the Hubrecht Institute for Developmental Biology and Stem Cell Research, Utrecht, The Netherlands and expanded in T-Flasks as previously described (Dekkers J F, Wiegerinck C L, de Jonge H R, Bronsveld I, Janssens H M, de Winter-de Groot K M, Brandsma A M, de Jong N W M, Bijvelds M J C, Scholte B J, Nieuwenhuis E E S, van den Brink S, Clevers H, van der Ent C K, Middendorp S and M Beekman J M. A functional CFTR assay using primary cystic fibrosis intestinal organoids. Nat Med. 2013 July; 19(7):939-45.).
3. Enteroid Cell Harvesting and Seeding
Cells were recovered in cell recovery solution, collected by centrifugation at 650 rpm for 5 min at 4° C., resuspended in TrypLE and incubated for 5 min at 37° C. Cells were then collected by centrifugation at 650 rpm for 5 min at 4° C. and resuspended in IEMM containing 10 μM ROCK inhibitor (RI). The cell suspension was passed through a 40 μm cell strainer and resuspended at 1×10^6 cells/mL in IEMM containing 10 μM RI. Cells were seeded at 5000 cells/well into multi-well plates and incubated for overnight at 37° C., 95% humidity and 5% CO2 prior to assay.
4. Membrane Potential Dye, Enteroid Assay A
Enteroid cells were incubated with test compound in IEMM for 18-24 hours at 37° C., 95% humidity and 5% CO2. […] Briefly, cells were washed 5 times in Bath 1 Buffer. Bath 1 Dye Solution was added, and the cells were incubated for 25 min at room temperature. Following dye incubation, cells were washed 3 times in Chloride Free Dye Solution. Chloride transport was initiated by addition of Chloride Free Dye Stimulation Solution and the fluorescence signal was read for 15 min. […] Chloride transport was then expressed as a percentage of the chloride transport following treatment with 3 μM N-[(6-amino-2-pyridyl)sulfonyl]-6-(3-fluoro-5-isobutoxy-phenyl)-2-[(4S)-2,2,4-trimethylpyrrolidin-1-yl]pyridine-3-carboxamide, 3 μM (R)-1-(2,2-difluorobenzo[d][1,3]dioxol-5-yl)-N-(1-(2,3-dihydroxypropyl)-6-fluoro-2-(1-hydroxy-2-methylpropan-2-yl)-1H-indol-5-yl)cyclopropanecarboxamide and 300 nM acute N-[2,4-bis(1,1-dimethylethyl)-5-hydroxyphenyl]-1,4-dihydro-4-oxoquinoline-3-carboxamide triple combination control (% Activity).

CFTR [2] = molecular target: T1, CFTR; assay: Membrane Potential Dye, Enteroid Assay B; format: cell-based
Method in brief: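 Activity given as % of a triple-combination reference (1 μM and 3 μM correctors, 300 nM acute potentiator). Enteroids were preincubated 18-24 h with compound; chloride efflux then measured 15 min by methyl oxonol fluorescence after forskolin/IBMX/Compound III stimulation in chloride-free buffer containing CaCCinh-A01 and Chicago Sky Blue.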

T1 sequence (P13569 with tags, fused parts or gaps DEL508-508): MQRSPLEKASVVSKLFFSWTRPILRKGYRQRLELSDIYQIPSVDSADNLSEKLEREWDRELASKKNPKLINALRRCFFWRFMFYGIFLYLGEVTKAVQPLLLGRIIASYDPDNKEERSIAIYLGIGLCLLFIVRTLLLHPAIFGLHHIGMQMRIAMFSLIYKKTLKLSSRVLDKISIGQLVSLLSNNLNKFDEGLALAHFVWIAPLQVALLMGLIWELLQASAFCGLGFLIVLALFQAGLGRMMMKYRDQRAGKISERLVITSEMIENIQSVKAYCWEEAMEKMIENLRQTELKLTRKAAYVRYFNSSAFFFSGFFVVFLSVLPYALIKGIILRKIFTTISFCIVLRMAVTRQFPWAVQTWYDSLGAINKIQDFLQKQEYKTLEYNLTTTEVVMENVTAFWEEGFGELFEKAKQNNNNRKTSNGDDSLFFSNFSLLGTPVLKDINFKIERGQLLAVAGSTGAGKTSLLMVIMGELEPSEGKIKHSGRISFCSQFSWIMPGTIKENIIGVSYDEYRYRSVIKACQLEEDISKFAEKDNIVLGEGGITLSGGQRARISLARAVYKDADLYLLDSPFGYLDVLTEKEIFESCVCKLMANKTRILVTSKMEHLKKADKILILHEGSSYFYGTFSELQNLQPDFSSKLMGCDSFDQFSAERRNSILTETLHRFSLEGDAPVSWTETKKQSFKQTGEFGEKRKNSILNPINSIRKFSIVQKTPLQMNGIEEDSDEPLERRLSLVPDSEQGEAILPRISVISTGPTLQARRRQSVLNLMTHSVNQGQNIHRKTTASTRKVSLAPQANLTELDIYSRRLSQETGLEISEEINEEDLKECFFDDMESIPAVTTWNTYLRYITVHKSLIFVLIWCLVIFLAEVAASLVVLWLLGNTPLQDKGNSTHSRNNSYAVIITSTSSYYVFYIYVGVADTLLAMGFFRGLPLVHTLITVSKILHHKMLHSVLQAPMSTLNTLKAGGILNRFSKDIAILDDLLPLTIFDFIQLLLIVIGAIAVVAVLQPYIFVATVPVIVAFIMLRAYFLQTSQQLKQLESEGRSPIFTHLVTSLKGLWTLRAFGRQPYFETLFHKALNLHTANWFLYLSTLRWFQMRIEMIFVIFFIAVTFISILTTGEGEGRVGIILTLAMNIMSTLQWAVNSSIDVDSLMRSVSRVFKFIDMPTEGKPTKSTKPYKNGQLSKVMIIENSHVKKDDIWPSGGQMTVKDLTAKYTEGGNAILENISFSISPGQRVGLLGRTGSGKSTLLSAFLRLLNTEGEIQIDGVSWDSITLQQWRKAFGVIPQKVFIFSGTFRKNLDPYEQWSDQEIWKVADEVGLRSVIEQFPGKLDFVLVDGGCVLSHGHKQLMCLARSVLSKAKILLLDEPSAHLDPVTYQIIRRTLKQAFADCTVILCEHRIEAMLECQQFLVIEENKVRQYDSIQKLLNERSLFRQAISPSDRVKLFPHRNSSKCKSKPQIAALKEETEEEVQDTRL

| Compound | Ent. A Max Activity (%) (CFTR [1]) | EC50 (CFTR [1]) | also measured |
| --- | --- | --- | --- |
| Cc1cccc(C)c1-c1cc2nc(n1)NS(=O)(=O)c1cccc(c1)C(=O)N([C@H]1C[C@]3(CCN(C(C)C)C3)C1)[C@H](CC(C)C)CO2 (single isomer, unassigned) [Compound 33] | +++ (+++ is >60%) | < 1000 nM |  |
| Cc1cccc(C)c1-c1cc2nc(n1)NS(=O)(=O)c1cccc(c1)C(=O)N([C@H]1C[C@]3(CCN(C(C)C)C3)C1)[C@H](CC(C)C)CO2 (single isomer, unassigned) [Compound 34] | +++ (+++ is >60%) | < 1000 nM |  |
| Cc1cccc(C)c1-c1cc2nc(n1)NS(=O)(=O)c1cccc(c1)C(=O)N([C@H]1C[C@@H](CO)C1)[C@H](CC(C)C)CO2 (single isomer, unassigned) [Compound 40] | +++ (+++ is >60%) | 1000 to 3000 nM |  |
| Cc1cccc(C)c1-c1cc2nc(n1)NS(=O)(=O)c1cccc(c1)C(=O)N([C@H]1C[C@@H](OCc3ccccc3)C1)[C@H](CC(C)C)CO2 (single isomer, unassigned) [Compound 42] | ++ (++ is 30-60%) | < 1000 nM |  |
| Cc1cccc(C)c1-c1cc2nc(n1)NS(=O)(=O)c1cccc(c1)C(=O)N([C@H]1C[C@@H](O)C1)[C@H](CC(C)C)CO2 (single isomer, unassigned) [Compound 43] | +++ (+++ is >60%) | 1000 to 3000 nM |  |
| Cc1cccc(C)c1-c1cc2nc(n1)NS(=O)(=O)c1cccc(c1)C(=O)N([C@H]1C[C@@H](O)C1)[C@H](CC(C)C)CO2 (single isomer, unassigned) [Compound 44] | +++ (+++ is >60%) | < 1000 nM |  |
| Cc1cccc(C)c1-c1cc2nc(n1)NS(=O)(=O)c1cccc(c1)C(=O)N(C1CC3(CC3)C1)C(CC(F)(F)F)CO2 (single isomer, unassigned) [Compound 109, 6-(2,6-Dimethylphenyl)-2,2-dioxo-12-spiro[2.3]hexan-5-yl-11-(2,2,2-trifluoroethyl)-9-oxa-2λ^6-thia-3,5,12,19-tetrazatricyclo[12.3.1.14,8]nonadeca-1(18),4(19),5,7,14,16-hexaen-13-one] | ++ (++ is 30-60%) | 1000 to 3000 nM |  |
| Cc1cccc(C)c1-c1cc2nc(n1)NS(=O)(=O)c1cccc(c1)C(=O)N(C1CC3(CC3)C1)C(CC(F)(F)F)CO2 (single isomer, unassigned) [Compound 125, 6-(2,6-dimethylphenyl)-12-{spiro[2.3]hexan-5-yl}-11-(2,2,2-trifluoroethyl)-9-oxa-2λ^6-thia-3,5,12,19-tetraazatricyclo[12.3.1.14,8]nonadeca-1(17),4(19),5,7,14(18),15-hexaene-2,2,13-trione] | ++ (++ is 30-60%) | < 1000 nM |  |
| Cc1cccc(C)c1-c1cc2nc(n1)NS(=O)(=O)c1cccc(c1)C(=O)N(C1CC3(CCN(C)CC3)C1)C(CC1(C(F)(F)F)CC1)CO2 (single isomer, unassigned) [Compound 136, 6-(2,6-Dimethylphenyl)-12-(7-methyl-7-azaspiro[3.5]nonan-2-yl)-2,2-dioxo-11-[[1-(trifluoromethyl)cyclopropyl]methyl]-9-oxa-2λ^6-thia-3,5,12,19-tetrazatricyclo[12.3.1.14,8]nonadeca-1(18),4(19),5,7,14,16-hexaen-13-one] | +++ (+++ is >60%) | < 1000 nM |  |
| Cc1cccc(C)c1-c1cc2nc(n1)NS(=O)(=O)c1cccc(c1)C(=O)N(C1CC3(CCN(C)CC3)C1)C(CC1(C(F)(F)F)CC1)CO2 (single isomer, unassigned) [Compound 137, 6-(2,6-dimethylphenyl)-12-(7-methyl-7-azaspiro[3.5]nonan-2-yl)-2,2-dioxo-11-[[1-(trifluoromethyl)cyclopropyl]methyl]-9-oxa-2λ^6-thia-3,5,12,19-tetrazatricyclo[12.3.1.14,8]nonadeca-1(18),4(19),5,7,14,16-hexaen-13-one] | +++ (+++ is >60%) | 1000 to 3000 nM |  |
| Cc1cccc(C)c1-c1cc2nc(n1)NS(=O)(=O)c1cccc(c1)C(=O)N([C@H]1C[C@]3(CCN(C)C3)C1)[C@H](CC(C)C)CO2 (stereo in doubt) [Compound 333] | +++ (+++ is >60%) | < 1000 nM |  |
| CNC(=O)[C@H]1CC2(C1)C[C@H](N1C(=O)c3cccc(c3)S(=O)(=O)Nc3nc(cc(-c4c(C)cccc4C)n3)OC[C@H]1CC(C)C)C2 (stereo in doubt) [Compound 347] | +++ (+++ is >60%) | < 1000 nM |  |
| CC(C)C[C@@H]1COc2cc(-c3ccccc3C(C)C)nc(n2)NS(=O)(=O)c2cccc(c2)C(=O)N1C1CC2(CCN(C)CC2)C1 [Compound 11, (11R)-11-Isobutyl-6-(2-isopropylphenyl)-12-(7-methyl-7-azaspiro[3.5]nonan-2-yl)-2,2-dioxo-9-oxa-2 λ6-thia-3,5,12,19-tetrazatricyclo[12.3.1.14,8]nonadeca-1(18),4,6,8(19),14,16-hexaen-13-one] | +++ (+++ is >60%) | < 1000 nM |  |
| COCC(=O)N1CCC2(CC1)CC(N1C(=O)c3cccc(c3)S(=O)(=O)Nc3nc(cc(-c4c(C)cccc4C)n3)OC[C@H]1CC(C)C)C2 [Compound 459] |  |  | Ent. B Max Activity (%) (CFTR [2]; Table 9): +++ (+++ is >60%); EC50 (CFTR [2]; Table 9, read-out: Ent. B EC50): < 1000 nM |
| Cc1cccc(C)c1-c1cc2nc(n1)NS(=O)(=O)c1cccc(c1)C(=O)N(C1CC3(CCN(C(=O)COC(C)(C)C)CC3)C1)[C@H](CC(C)C)CO2 [Compound 460] |  |  | Ent. B Max Activity (%) (CFTR [2]; Table 9): +++ (+++ is >60%); EC50 (CFTR [2]; Table 9, read-out: Ent. B EC50): < 1000 nM |
| Cc1cccc(C)c1-c1cc2nc(n1)NS(=O)(=O)c1cccc(c1)C(=O)N(C1CC3(CC(N(C)C)C3)C1)[C@H](CC(C)(C)C)CO2 (some centres unmarked) [Compound 461] |  |  | Ent. B Max Activity (%) (CFTR [2]; Table 9): +++ (+++ is >60%); EC50 (CFTR [2]; Table 9, read-out: Ent. B EC50): < 1000 nM |
| Cc1cccc(C)c1-c1cc2nc(n1)NS(=O)(=O)c1cccc(c1)C(=O)N(C1CC3(CC(N(C)C)C3)C1)[C@H](CC(C)(C)C)CO2 (some centres unmarked) [Compound 462] |  |  | Ent. B Max Activity (%) (CFTR [2]; Table 9): +++ (+++ is >60%); EC50 (CFTR [2]; Table 9, read-out: Ent. B EC50): < 1000 nM |
| Cc1cccc(C)c1-c1cc2nc(n1)NS(=O)(=O)c1cccc(c1)C(=O)N(C1CC3(CC(N)C3)C1)[C@H](CC(C)(C)C)CO2 (some centres unmarked) [Compound 463] |  |  | Ent. B Max Activity (%) (CFTR [2]; Table 9): +++ (+++ is >60%); EC50 (CFTR [2]; Table 9, read-out: Ent. B EC50): < 1000 nM |
| Cc1cccc(C)c1-c1cc2nc(n1)NS(=O)(=O)c1cccc(c1)C(=O)N(C1CC3(CCN(C(=O)OC(C)C)CC3)C1)[C@H](CC1(C(F)(F)F)CC1)CO2 [Compound 464] |  |  | Ent. B Max Activity (%) (CFTR [2]): +++ (+++ is >60%); EC50 (CFTR [2]; read-out: Ent. B EC50): < 1000 nM |
| COC1CC(N2C(=O)c3cccc(c3)S(=O)(=O)Nc3nc(cc(-c4c(C)cccc4C)n3)OC[C@H]2CC(C)C)C1 (some centres unmarked) [Compound 467] |  |  | Ent. B Max Activity (%) (CFTR [2]): +++ (+++ is >60%); EC50 (CFTR [2]; read-out: Ent. B EC50): < 1000 nM |
| Cc1cccc(C)c1-c1cc2nc(n1)NS(=O)(=O)c1cccc(c1)C(=O)N(C1CC3(CC3)C1)CC(C(C)C)O2 (centres unmarked) [Compound 468] |  |  | Ent. B Max Activity (%) (CFTR [2]): ++ (++ is 30-60%); EC50 (CFTR [2]; read-out: Ent. B EC50): < 1000 nM |
| COC(=O)N[C@H]1C[C@@H](N2C(=O)c3cccc(c3)S(=O)(=O)Nc3nc(cc(-c4c(C)cccc4C)n3)OC[C@H]2CC(C)(C)C)C1 [Compound 472] |  |  | Ent. B Max Activity (%) (CFTR [2]; Table 9): +++ (+++ is >60%); EC50 (CFTR [2]; Table 9, read-out: Ent. B EC50): < 1000 nM |
